One test relates to AGS. In words: Neutral red uptake assay on AGS. It is filed as cell-based, human. The note with it: 72 h treatment. As for the experimental part:
(§1) Based on the results obtained for the RPTEC cell line, the following concentrations of 4b–d were chosen to be applied to neoplastic cell lines: 0.1, 1, 10, 25, 50, and 100 µM. A172, AGS, CaCo-2, HeLa, and HepG2 cancer cell lines were used to perform a neutral red uptake assay. The obtained results were compared with a negative control (cell lines incubated without tested compounds), and half-maximal inhibitory concentration (IC50) values were calculated. Cell lines were plated in 96-well plates at a density of 1 × 10^4 cells/well. After 24 h incubation, which allowed the cells to attach and start to proliferate, the culture media were replaced with 4a–d dissolved in the appropriate medium at concentrations of 1, 10, 50, 100, 150 and 200 µM. […] Negative (1% DMSO in medium) and positive (1 µM staurosporine) controls were also included. Plates were incubated at 37 °C for 24, 48, and 72 h before the neutral red uptake assay. The neutral red uptake assay was performed as described by Repetto et al.. Briefly, the medium from all wells was discarded, the attached cells were washed with 100 µL PBS, and then 100 µL of neutral red working solution in medium (40 µg/mL) was added to each well. The neutral red solution was incubated overnight in the same conditions as the cells and centrifuged before being added to the cells. The plates were incubated for at least 2 h at 37 °C, 5% CO2, in a humidified atmosphere. Next, the neutral red medium was removed, and the cells were washed with 100 µL PBS. A 100 µL quantity of destain solution consisting of 50% ethanol, 1% glacial acetic acid, and deionized water was added to each well. Plates were incubated for 30 min with constant shaking on a horizontal shaker at 37 °C. Absorption was measured at 540 nm excitation. The cells’ viability was calculated by comparing results from experimental sets with negative controls according to the formula: % viability=ODtest substance−ODblind/ODnegative control−ODblind×100

The subject of a further test is A172 cell line. Kind of test: Comet assay (single-cell gel electrophoresis), A172. It is filed as cell-based, human. How it is done:
Single-cell gel electrophoresis was performed to assess the potential genotoxic effect on AGS and A172 after incubation with compound 4b at IC50. This method is based on the ability of damaged DNA to migrate out of the cell during electrophoresis. After DNA staining (Hoechst 33342), the characteristic “comet tail” could be observed under the fluorescence microscope. The damages in 100 randomly selected cells were visually classified into five groups according to the length of the “comet tail”. Group 0 consisted of cells without damaged DNA, while group 4 contained cells with maximally long tails. Based on this, a group damage index (DI) was calculated. The genotoxic effect was found in both examined cell lines. In the case of the A172 cell line, the DNA degradation level seemed to be independent of the incubation time with compound 4b (DNA damage index (DDI) between 77 and 85 over three incubation periods), whereas for AGS cells, genotoxicity was induced in a time-dependent manner (DDI 63, 107, and 111 after 24, 48, and 72 h, respectively).
The comet assay was performed according to the method of Singh et al. with slight modifications. Slides sterilized in 70% ethanol microscope were covered with thin layer of 1% normal melting agarose and left to solidify in a low-humidity environment. Cells were plated in 12-well plates at a density of 1 × 10^5 cells/well and incubated for 24 h in a cell incubator. Next, compound 4b was added in concentrations equal to the IC50 values obtained after the neutral red uptake assay. After 24, 48, and 72 h incubation, cells were harvested, centrifuged, and resuspended in PBS. […] A total of 100 randomly selected cells were scored, and captured comets were classified based on the comet’s tail length as follows: class 0 contained comets with no damaged DNA; class 1, those with low damage; class 2, those with medium damage; class 3, those with high damage; and class 4, those with very high damage. The damage index (DI) was calculated as follows: DI=0×n0+1×n1+2×n2+3×n3+4×n4, n0,1,2,3,4 —the amount of comets in each class.

The next test deals with CaCo-2. In words: Neutral red uptake assay on CaCo-2. It is filed as cell-based. Conditions: Homo sapiens; CaCo-2, 72 h treatment. How it is done:
as §1

A further test deals with AGS cells. Kind of test: Flow cytometry annexin V/PI staining, cell death pathway, AGS. The format is cell-based, human. Conditions: at IC50, 6, 18 and 24 h. As for the experimental part: To confirm the cell death pathway, another approach to flow cytometry was used. […] Annexin V is a specific PS-binding protein, and thus it is used to detect apoptotic cells. Very few events could be observed in the first and the second quadrant, which represent apoptotic cells. Most events occurred in the third and the fourth quadrant, where unstained and necrotic cells were located. The 24 h measurements after both flow cytometry approaches were consistent with each other. […] Two approaches for flow cytometry were used—FDA/PI staining to determine cell viability and annexin V/PI staining for cell death pathway determination. For cell death pathway determination, cells were plated in 6-well plates at a density of 3 × 10^5 cells/well. […] After 6, 18, and 24 h incubation, adhered and floating cells were harvested, centrifuged at 1600 rpm, and washed with PBS. Next, the cells were washed with 1× annexin-binding buffer, and after centrifugation, cells from each test set were suspended in 100 µL of 1× annexin-binding buffer. To each tube, 5 µL of Alexa Fluor 488-annexin V stain was added, and the cells were incubated in the dark. After 15 min incubation, the cells were centrifuged at 1600 rpm to remove the dye, then suspended in 1 mL of 1× binding buffer and kept on ice. Prior to analysis, cells were stained for 2 min with 1 µM PI. […]
(In general: A flow cytometer gives signals particle by particle.)

In another test the test system is HepG2. Kind of test: Neutral red uptake assay on HepG2. The format is cell-based. The note with it: Homo sapiens; HepG2, 72 h treatment. As for the experimental part:
as §1

Some results are limits rather than exact numbers.

Usually IC50 stands for the concentration at which inhibition is half-maximal. For the compound `Cc1nc(-c2ccccc2)nc(Nc2ccc(F)cc2)c1C=Nc1cccc(Cl)c1` [compound 4b, 5-{[(3-chlorophenyl)imino]methyl}-N-(4-fluorophenyl)-6-methyl-2-phenylpyrimidin-4-amine], the half-inhibitory concentration (IC50) in the test on AGS was 32.2 µM; in the test with AGS (Homo sapiens, 72 h), 32.2 µM; in the test with CaCo-2, over 100 µM; with HepG2 it was over 100 µM. Further, the DNA damage index with A172 cell line (A172, at IC50, 24 h) is 77 arbitrary units; in the test on A172 cell line (A172, at IC50, 48 h), 85 arbitrary units; with A172 cell line (A172, at IC50, 72 h) it was 78 arbitrary units. In addition, the cell death pathway entry in the test with AGS cells was “irreversible cell injury and necrosis”.

(Values after article PMC10889512, “Pyrimidine Schiff Bases: Synthesis, Structural Characterization and Recent Studies on Biological Activities” (International Journal of Molecular Sciences, 2024).)
